The values below come from US5804549A, “Compositions with activity against helicobacter” (AMBI Inc., priority 1996, dated 1998).

Some results are limits rather than exact numbers.

The test concerns H. pylori strain ATCC 43504. Nature of the test: bactericidal activity: survival of bacteria by viable counts (CFU/ml). In kind it is cell-based, Helicobacter pylori. As to the method:
All tests of bactericidal activity in this example were conducted for 30 minutes at 37° C. The parameter measured was survival of bacteria exposed to GML and/or nisin, as determined by viable counts (colony forming units per ml [CFU/ml]) determined by standard dilution and plating techniques. Media, growth and test conditions were as follows: All cultures of Helicobacter were incubated under microaerobic conditions in GasPak. H. pylori was cultured for 2 to 4 days on Trypticase Soy agar+5% defibrinated sheep blood and then inoculated into NYCIII broth and grown overnight with gentle shaking. [NYCIII broth contains, per liter: 1 g soluble starch (Difco), 15 g proteose peptone #3 (Difco), 5 g NaCl, 4 gK2 HPO4, 1 g KH2 PO4, 5 g glucose, 25 ml fresh yeast extract (Gibco), 120 ml gamma-globulin-free horse serum (Sigma)]. Suspensions for testing the activity of GML and nisin were in 10% sucrose. Viable counts were determined after 3-5 days' growth on Trypticase Soy agar-5% sheep blood.
A suspension of bacteria was divided and exposed to different concentrations of the agents, singly or combined. Survival of bacteria is expressed relative to the unincubated (zero time) control suspension. Nisin alone, at concentrations between 30 and 300 μg/ml, had little or no effect on the viability of H. pylori (survival ≥10%). At concentrations of 1 and 3 μg/ml GML, in the absence of nisin, there was also little or no reduction in the viability of the inoculum (survival≥10%). […] When the bacteria were exposed to 10 μg/ml of GML alone, again more than 10% of the bacteria survived.

Regarding nisin, for the setting “nisin 30-100 μg/ml administered alone”, the “effect on the viability of H. pylori” value is reported as “little effect on the viability”. Where the note is “nisin alone, 30 to 300 μg/ml, 30 minutes at 37° C., 10% sucrose, no chelator”, the “Survival of bacteria relative to the unincubated (zero time) control suspension” value is reported as at least 10%.

On to `CCCCCCCCCCCC(=O)OCC(O)CO` (stereo not drawn) [GML, Glycerol monolaurate], for which the “Survival of bacteria relative to the unincubated (zero time) control suspension” value reads like this: (10 μg/ml of GML alone, 30 minutes at 37° C.) “more than 10%”; (GML 1 and 3 μg/ml, in the absence of nisin, 30 minutes at 37° C.) at least 10%. For the same molecule, the “effect on the viability of H. pylori” value (GML 10 μg/ml administered alone) was “little effect on the viability”. In addition, where the note is “GML alone, 30 or 100 μg/ml, 30 minutes at 37° C.”, the “effect on viability of the bacterial suspensions” value was “sterilized the bacterial suspensions”.
